Data as given in patent US11911445B2, “Peptide YY pharmaceutical formulations, compositions, and methods” (Gila Therapeutics, Inc., priority 2018, dated 2024).
Where two headings read alike, the source gives them in different places. No end group written: not given here.

Columns and labels:
rodents = settings: augmentation of salivary PYY(3-36); cited from earlier work
[1] = PYY concentration in plasma after lingual administration followed by lunch; type: in vivo, human; settings: 0.25 mg/ml and 2.5 mg/ml, each followed by lunch; up to 4 hours after administration
Protocol: As shown, administering the placebo followed by food consumption induces the known and expected endogenous production of PYY resulting from food consumption peaking at approximately 20 pg/ml above pre-dose levels at 1-2 hours post-administration.
Subjects who complete all screening procedures and meet all inclusion and exclusion criteria described within the protocol and found to be eligible for study enrollment checked into the Study Unit (i.e., the study facility). The morning of the study, participants fasted prior to arriving at the SU. Participants fasted for at least 12 hours prior to Day 1 of the study. […] BP and HR were measured twice in the sitting position and twice in the standing position. […] Body temperature was measured once. • (6) Performing urine drug screen, urine cotinine test, alcohol breath test, and urine pregnancy test. • (7) Subjects provided a 325-400 calorie breakfast and calorie intake was recorded. • (8) Water was provided “ad-libitum” and volume recorded. • (9) Four (4) hours post breakfast, the VAS for Appetite and Satiety was performed. • (10) Inserting a cannula to obtain blood samples, obtaining a 5 ml blood sample, and screening for anti-GT-001 antibodies. • (11) Obtaining a fasting PK blood sample #1 (5 ml) 15 minutes prior to placebo. • (12) Performing a water mouthwash prior to dosing with GT-001. […]

[2] = tested on: subjects with BMIs of 30 to 40 kg/m^2; assay: Dose-escalation clinical trial, feeling of fullness assessed by VAS after lunch; type: in vivo, human
Protocol: An exemplary clinical trial was performed as a dose-escalation design trial. Approximately twelve evaluable subjects (n˜12) with BMIs of 30 to 40 kg/m^2 received a single dose of placebo followed by study drug (PYY(3-36) also known as GT-001) applied directly to the surface of the lingual mucosa with a disposable pipette followed by a one-day washout. A total of seven (7) doses was escalated to a dose of 2.5 mg/ml.
The dose can be prepared, for example, from a stock solution of 2.5 mg/ml PYY(3-36).
Subjects who complete all screening procedures and meet all inclusion and exclusion criteria described within the protocol and found to be eligible for study enrollment checked into the Study Unit (i.e., the study facility). The morning of the study, participants fasted prior to arriving at the SU. Participants fasted for at least 12 hours prior to Day 1 of the study. Participants were permitted to only drink water prior to arrival to SU and were able to brush their teeth. The following assessments and measurements were taken: • (1) Inspection of the lingual mucosa. • (2) Updating medical and medication history prior to placebo application. • (3) Assessing health status. If participant has either rhinitis or gastrointestinal distress, the participant will be discontinued for that day. • (4) Measuring body weight and BMI. • (5) Measuring vital signs (BP, HR, and body temperature). BP and HR were measured twice in the sitting position and twice in the standing position. If BP was high at baseline sitting (>160 systolic), BP was re-checked after participant was sitting for 5-10 min. Body temperature was measured once. • (6) Performing urine drug screen, urine cotinine test, alcohol breath test, and urine pregnancy test. • (7) Subjects provided a 325-400 calorie breakfast and calorie intake was recorded. • (8) Water was provided “ad-libitum” and volume recorded. • (9) Four (4) hours post breakfast, the VAS for Appetite and Satiety was performed. • (10) Inserting a cannula to obtain blood samples, obtaining a 5 ml blood sample, and screening for anti-GT-001 antibodies. • (11) Obtaining a fasting PK blood sample #1 (5 ml) 15 minutes prior to placebo. • (12) Performing a water mouthwash prior to dosing with GT-001. The mouthwash can be a rinse with 20 ml of water. • (13) Giving one milliliter (1 ml) of placebo (formulation without GT-001) to the participant to the tongue via pipette 5 minutes before lunch. • (14) The solution remained on the tongue for 1 minute followed by asking participants to swish and then swallow. • (15) Completing a VAS for like-lines (VAS completed by subjects). • (16) Collecting PK blood samples after each of seven doses at ±1 minute at 5, 10, 15, 30, and ±5 minutes at 60, 120, and 240 minutes post dose. • (17) Isolating subjects from other subjects during lunch. • (18) Provided a “ad-libitum” lunch (composed of a casserole, nutrient drink and two (2) cookies) and recording calorie intake. • (19) Having subjects complete VAS questionnaire for sweetness, sourness, bitterness, saltiness, umami, and fat taste 20 minutes after completing the meals. • (20) Recording VAS for appetite and satiety every 30 minutes for 2 hours after completing the meal. • (21) Discharging subjects. Subjects ate “at-libitum” until the 12-hour fasting period preceding the next study visit. • (22) During the SU visit, subjects were restricted from ingesting gum, candy, tobacco, carbonated drinks, and from performing exercise. During the meal, subjects were not exposed to food cues (visual, odor, or hearing) and they should eat in isolation.
Days 2, 4, 6, 8, 10, 12 and 14 treatment days are the same as day 1.
The following exemplary VAS Assessment was given to subjects to assess their feeling of fullness before and after receiving PYY(3-36) or placebo and before or after eating at various doses described herein. […]

mice = settings: cited from earlier work; for effect on 1-hour food intake: augmentation of salivary peptide; for reduction of caloric intake as compared to controls / caloric intake: mice; for reduction of caloric intake as compared to controls: salivary augmentation; for caloric intake: vehicle 4.10±0.04 kcal

| Substance | taste aversion (rodents) | level of PYY in plasma versus placebo/meal combination (FIG. 3) [1] | feeling of fullness, VAS score (FIG. 1) ([2]; dose 25 ng applied to the tongue, 120 minutes post-lunch, 12 subjects, significantly above placebo level) | feeling of fullness, VAS score (FIG. 2) ([2]; dose 25 ng, up to 60 minutes post-lunch) | feeling of fullness, VAS score (FIG. 1) ([2]; dose 2.5 μg applied to the tongue, post-lunch, 12 subjects) | feeling of fullness, VAS score (FIG. 2) ([2]; dose 25 μg, maintained out to 120 minutes post-lunch) | feeling of fullness, VAS scale (FIG. 1) ([2]; dose 250 μg applied to the tongue, post-lunch, 12 subjects) | feeling of fullness, VAS score (FIG. 2) ([2]; dose 250 μg, maintained out to 120 minutes post-lunch) | effect on 1-hour food intake (mice) | reduction of caloric intake as compared to controls (mice; 0.3 μg/100 g) | caloric intake (mice; 0.3 μg/100 g, p=0.01) | reduction of caloric intake as compared to controls (mice; 3 μg/100 g) | caloric intake (mice; 3 μg/100 g, p=0.008) | reduction of caloric intake as compared to controls (mice; 10 μg/100 g) | caloric intake (mice; 10 μg/100 g, p=1.81E-06) |
| --- | --- | --- | --- | --- | --- | --- | --- | --- | --- | --- | --- | --- | --- | --- | --- |
| PYY(3-36) | does not cause taste aversion | does not raise the level of PYY in plasma above levels induced by the placebo/meal combination | 7 | about 8 | increases | 8 | about 8 | 8 | decrease | 16% | 3.44 ± 0.06 kcal | 26% | 3.01 ± 0.06 kcal | 42% | 2.36 ± 0.05 kcal |
| amylin (KCNTATCATQRLANFLVHSSNNFGAILSSTNVGSNTY; not fully specified (C-terminus, bridges); cysteine pairing not given here; UniProt P10997 34-70, looked up) [peptide tested by salivary augmentation for comparison, reference compound] |  |  |  |  |  |  |  |  | no effect |  |  |  |  |  |  |
| neuropeptide Y [reference compound] |  |  |  |  |  |  |  |  | no effect |  |  |  |  |  |  |
